Data on seven compounds can be found in ChEMBL document CHEMBL3352320, “Novel benzothiazinones (BTOs) as allosteric modulator or substrate competitive inhibitor of glycogen synthase kinase 3β (GSK-3β) with cellular activity of promoting glucose uptake” (Bioorg Med Chem Lett, 2014).

Assay [1] addresses T1, Glycogen synthase kinase-3 beta (Homo sapiens, UniProt P49841). In words: Competitive inhibition of GSK3beta (unknown origin) using peptide substrate GS2 assessed as ATP remaining by Kinase-Glo luminescent kinase assay.
Target sequence in this assay (P49841 whole entry, looked up): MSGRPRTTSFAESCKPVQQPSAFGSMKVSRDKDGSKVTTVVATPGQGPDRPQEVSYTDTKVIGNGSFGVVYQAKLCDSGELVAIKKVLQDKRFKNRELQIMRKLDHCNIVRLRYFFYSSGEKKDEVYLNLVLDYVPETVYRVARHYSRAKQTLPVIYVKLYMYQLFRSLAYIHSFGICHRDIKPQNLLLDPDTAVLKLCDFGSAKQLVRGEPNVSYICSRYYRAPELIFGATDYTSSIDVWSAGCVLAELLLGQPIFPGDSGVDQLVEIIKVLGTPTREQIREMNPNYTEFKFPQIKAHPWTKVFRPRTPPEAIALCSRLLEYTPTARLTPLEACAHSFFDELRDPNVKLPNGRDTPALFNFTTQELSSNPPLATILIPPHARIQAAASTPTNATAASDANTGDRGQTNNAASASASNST
Assay [2] addresses Platelet-derived growth factor receptor beta (Homo sapiens) (UniProt P09619). In words: Inhibition of PDGFRbeta (unknown origin) at 100 uM.
Assay [3] deals with Cyclin-dependent kinase 1 (Homo sapiens) (UniProt P06493). Kind of assay: Inhibition of CDK1 (unknown origin) at 100 uM.
Chain of Cyclin-dependent kinase 1 (Homo sapiens) (P06493 whole entry, looked up): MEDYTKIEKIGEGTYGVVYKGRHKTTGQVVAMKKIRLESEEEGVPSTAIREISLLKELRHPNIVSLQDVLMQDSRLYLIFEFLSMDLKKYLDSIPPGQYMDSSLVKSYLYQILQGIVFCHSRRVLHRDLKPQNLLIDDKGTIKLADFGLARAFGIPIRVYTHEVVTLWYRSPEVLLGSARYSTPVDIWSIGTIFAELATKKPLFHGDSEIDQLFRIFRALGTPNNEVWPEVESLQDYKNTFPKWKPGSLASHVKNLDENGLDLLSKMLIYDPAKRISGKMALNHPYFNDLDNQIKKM
Assay [4] relates to 3T3-L1. In words: Increase in glucose incorporation in mouse 3T3L1 cells at 10 uM after 12 hrs by glucose assay. It counts as functional, cell-based.
Assay [5] has as its target Fibroblast growth factor receptor 1 (Homo sapiens) (UniProt P11362). In words: Inhibition of FGFR1 (unknown origin) at 100 uM.
In assay [6] the target is Platelet-derived growth factor receptor alpha (Homo sapiens) (UniProt P16234). In words: Inhibition of PDGFRalpha (unknown origin) at 100 uM.
Chain of Platelet-derived growth factor receptor alpha (Homo sapiens) (P16234 whole entry): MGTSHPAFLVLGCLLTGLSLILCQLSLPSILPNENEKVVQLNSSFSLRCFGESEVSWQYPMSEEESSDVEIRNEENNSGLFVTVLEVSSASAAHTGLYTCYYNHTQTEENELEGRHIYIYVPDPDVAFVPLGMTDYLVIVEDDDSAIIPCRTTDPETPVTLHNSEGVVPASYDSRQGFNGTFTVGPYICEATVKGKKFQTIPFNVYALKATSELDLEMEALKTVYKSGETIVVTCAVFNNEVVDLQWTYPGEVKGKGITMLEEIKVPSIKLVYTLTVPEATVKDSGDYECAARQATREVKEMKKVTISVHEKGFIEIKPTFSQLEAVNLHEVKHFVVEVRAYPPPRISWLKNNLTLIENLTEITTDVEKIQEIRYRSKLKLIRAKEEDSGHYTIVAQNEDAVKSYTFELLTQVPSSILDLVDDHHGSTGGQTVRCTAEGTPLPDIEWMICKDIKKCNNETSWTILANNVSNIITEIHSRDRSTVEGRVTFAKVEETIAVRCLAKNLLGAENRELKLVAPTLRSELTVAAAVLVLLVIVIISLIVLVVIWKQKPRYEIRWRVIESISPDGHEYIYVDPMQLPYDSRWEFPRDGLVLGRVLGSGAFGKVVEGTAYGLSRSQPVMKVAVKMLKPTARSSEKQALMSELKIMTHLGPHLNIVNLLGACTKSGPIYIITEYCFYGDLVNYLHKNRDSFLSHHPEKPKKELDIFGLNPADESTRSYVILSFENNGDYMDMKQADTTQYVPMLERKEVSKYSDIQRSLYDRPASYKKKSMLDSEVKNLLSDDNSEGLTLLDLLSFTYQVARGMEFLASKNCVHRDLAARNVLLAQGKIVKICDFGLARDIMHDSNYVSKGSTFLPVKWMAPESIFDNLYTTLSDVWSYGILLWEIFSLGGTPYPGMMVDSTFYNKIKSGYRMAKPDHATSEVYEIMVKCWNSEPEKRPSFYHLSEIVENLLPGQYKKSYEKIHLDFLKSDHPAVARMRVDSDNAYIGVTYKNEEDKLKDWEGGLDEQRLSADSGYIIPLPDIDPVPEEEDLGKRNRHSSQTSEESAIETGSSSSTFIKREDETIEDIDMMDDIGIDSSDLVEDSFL
In assay [7] the test system is HepG2. Kind of assay: Increase in glucose incorporation in human HepG2 cells at 10 uM after 12 hrs by glucose assay. It counts as functional, cell-based.
Assay [8] concerns the target T1, Glycogen synthase kinase-3 beta. In words: Inhibition of GSK3beta (unknown origin) using peptide substrate GS2 assessed as ATP remaining by Kinase-Glo luminescent kinase assay. Background: Kinase-Glo reads ATP consumption through a luciferase reaction.
Target sequence in this assay (P49841 whole entry): as the sequence (P49841 whole entry, looked up) above
The target in assay [9] is Receptor tyrosine-protein kinase erbB-4 (Homo sapiens) (UniProt Q15303). In words: Inhibition of ErbB4 (unknown origin) at 100 uM.
Chain of Receptor tyrosine-protein kinase erbB-4 (Homo sapiens) (Q15303 whole entry): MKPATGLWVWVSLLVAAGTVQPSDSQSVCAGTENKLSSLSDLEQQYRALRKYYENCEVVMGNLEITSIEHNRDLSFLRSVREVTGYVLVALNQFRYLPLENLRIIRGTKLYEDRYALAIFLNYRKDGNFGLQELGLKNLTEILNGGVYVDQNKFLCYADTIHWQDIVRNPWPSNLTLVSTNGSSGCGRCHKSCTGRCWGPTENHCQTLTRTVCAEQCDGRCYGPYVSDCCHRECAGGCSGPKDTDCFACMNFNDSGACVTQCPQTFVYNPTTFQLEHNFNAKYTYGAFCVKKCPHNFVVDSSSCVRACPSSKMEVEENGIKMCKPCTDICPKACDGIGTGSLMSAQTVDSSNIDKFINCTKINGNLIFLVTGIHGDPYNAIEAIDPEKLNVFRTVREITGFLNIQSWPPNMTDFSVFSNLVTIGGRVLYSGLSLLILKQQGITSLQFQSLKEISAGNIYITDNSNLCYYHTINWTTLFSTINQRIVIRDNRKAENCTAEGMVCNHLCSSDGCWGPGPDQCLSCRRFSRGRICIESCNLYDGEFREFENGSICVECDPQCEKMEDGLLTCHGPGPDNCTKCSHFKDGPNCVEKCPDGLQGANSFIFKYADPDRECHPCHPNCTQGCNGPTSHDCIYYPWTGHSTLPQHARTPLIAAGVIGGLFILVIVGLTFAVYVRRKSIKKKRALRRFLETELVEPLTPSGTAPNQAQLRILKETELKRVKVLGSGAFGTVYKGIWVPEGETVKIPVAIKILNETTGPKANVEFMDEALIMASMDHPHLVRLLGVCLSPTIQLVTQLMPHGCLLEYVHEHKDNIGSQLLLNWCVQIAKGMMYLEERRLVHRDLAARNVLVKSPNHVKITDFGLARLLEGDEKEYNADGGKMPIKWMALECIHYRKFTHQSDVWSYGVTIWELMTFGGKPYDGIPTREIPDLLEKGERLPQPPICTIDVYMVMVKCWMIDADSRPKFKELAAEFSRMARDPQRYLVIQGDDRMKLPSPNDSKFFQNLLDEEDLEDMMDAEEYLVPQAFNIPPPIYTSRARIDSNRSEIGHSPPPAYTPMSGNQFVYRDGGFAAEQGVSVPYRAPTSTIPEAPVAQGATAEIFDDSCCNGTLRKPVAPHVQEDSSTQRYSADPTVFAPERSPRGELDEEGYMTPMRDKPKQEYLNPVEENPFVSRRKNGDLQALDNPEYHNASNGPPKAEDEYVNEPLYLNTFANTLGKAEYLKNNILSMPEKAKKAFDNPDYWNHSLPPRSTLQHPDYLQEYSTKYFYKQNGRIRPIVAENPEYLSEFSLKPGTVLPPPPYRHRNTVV
The target of assay [10] is Protein kinase C alpha type (Homo sapiens) (UniProt P17252). Kind of assay: Inhibition of PKCalpha (unknown origin) at 100 uM.
For assay [11], the target named is Proto-oncogene tyrosine-protein kinase Src (Homo sapiens) (UniProt P12931). The following applies: at 100 µM.
Chain of Proto-oncogene tyrosine-protein kinase Src (Homo sapiens) (P12931 2-536 limits assumed): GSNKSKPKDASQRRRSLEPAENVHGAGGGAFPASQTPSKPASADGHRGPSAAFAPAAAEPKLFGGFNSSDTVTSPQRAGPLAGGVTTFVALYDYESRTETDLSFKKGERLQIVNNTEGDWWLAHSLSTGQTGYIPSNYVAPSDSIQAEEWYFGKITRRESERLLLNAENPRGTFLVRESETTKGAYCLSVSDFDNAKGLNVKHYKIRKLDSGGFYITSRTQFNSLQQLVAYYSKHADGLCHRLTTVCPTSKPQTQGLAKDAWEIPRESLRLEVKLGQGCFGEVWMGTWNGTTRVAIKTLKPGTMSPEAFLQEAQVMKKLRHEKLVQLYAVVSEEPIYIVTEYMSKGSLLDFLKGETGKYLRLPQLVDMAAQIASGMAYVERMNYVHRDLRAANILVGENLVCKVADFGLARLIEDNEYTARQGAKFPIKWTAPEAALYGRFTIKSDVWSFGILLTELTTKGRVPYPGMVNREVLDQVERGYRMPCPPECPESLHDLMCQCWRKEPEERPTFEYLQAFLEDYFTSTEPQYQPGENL
Description: Inhibition of c-Src (unknown origin) at 100 uM
The target in assay [12] is Casein kinase II (Homo sapiens) (UniProt P67870+P68400+P19784). In words: Inhibition of CK2 (unknown origin) at 100 uM. In kind it is protein-complex assay.
The target of assay [13] is Vascular endothelial growth factor receptor 2 (Homo sapiens) (UniProt P35968). Kind of assay: Inhibition of KDR (unknown origin) at 100 uM.
The target in assay [14] is T1, Glycogen synthase kinase-3 beta. Kind of assay: Inhibition of GSK3beta in human […] cells assessed as decrease in ratio of phosphorylated GS/GS at 10 uM after 12 hrs by Western blot analysis. It counts as cell-based.
Target sequence in this assay (P49841 whole entry, looked up): as the sequence (P49841 whole entry, looked up) above
Assay [15] relates to HepG2. Kind of assay: Increase in glucose incorporation in human HepG2 cells at 34 uM after 12 hrs by glucose assay. It counts as functional, cell-based.
Assay [16] addresses T1, Glycogen synthase kinase-3 beta. The following applies: HepG2, 34 uM.
Target sequence in this assay (P49841 whole entry, looked up): as above
Description: Inhibition of GSK3beta in human HepG2 cells assessed as decrease in ratio of phosphorylated GS/GS at 34 uM after 12 hrs by Western blot analysis
The subject of assay [17] is 3T3-L1. In words: Increase in glucose incorporation in mouse 3T3L1 cells at 34 uM after 12 hrs by glucose assay. It counts as functional, cell-based.
For assay [18], the system named is HepG2. Kind of assay: Increase in glucose incorporation in human HepG2 cells at 2 uM after 12 hrs by glucose assay. It counts as functional, cell-based.
Assay [19] concerns 3T3-L1. In words: Increase in glucose incorporation in mouse 3T3L1 cells at 2 uM after 12 hrs by glucose assay. In kind it is functional, cell-based.
Assay [20] deals with T1, Glycogen synthase kinase-3 beta. The note with it: HepG2, 2 uM.
Target sequence in this assay (P49841 whole entry, looked up): as above
Description: Inhibition of GSK3beta in human HepG2 cells assessed as decrease in ratio of phosphorylated GS/GS at 2 uM after 12 hrs by Western blot analysis

Activity calls are given as the source filed them. The rule behind the calls is not given here. Non-standard residues stand in square brackets, D forms with d. Residues, ends and D or L forms follow the SMILES beside them. *: point of attachment. Myristoyl = CCCCCCCCCCCCCC(=O)*; pS = N[C@@H](COP(=O)(O)O)C(=O)O

Chain of Platelet-derived growth factor receptor beta (Homo sapiens) (P09619 whole entry): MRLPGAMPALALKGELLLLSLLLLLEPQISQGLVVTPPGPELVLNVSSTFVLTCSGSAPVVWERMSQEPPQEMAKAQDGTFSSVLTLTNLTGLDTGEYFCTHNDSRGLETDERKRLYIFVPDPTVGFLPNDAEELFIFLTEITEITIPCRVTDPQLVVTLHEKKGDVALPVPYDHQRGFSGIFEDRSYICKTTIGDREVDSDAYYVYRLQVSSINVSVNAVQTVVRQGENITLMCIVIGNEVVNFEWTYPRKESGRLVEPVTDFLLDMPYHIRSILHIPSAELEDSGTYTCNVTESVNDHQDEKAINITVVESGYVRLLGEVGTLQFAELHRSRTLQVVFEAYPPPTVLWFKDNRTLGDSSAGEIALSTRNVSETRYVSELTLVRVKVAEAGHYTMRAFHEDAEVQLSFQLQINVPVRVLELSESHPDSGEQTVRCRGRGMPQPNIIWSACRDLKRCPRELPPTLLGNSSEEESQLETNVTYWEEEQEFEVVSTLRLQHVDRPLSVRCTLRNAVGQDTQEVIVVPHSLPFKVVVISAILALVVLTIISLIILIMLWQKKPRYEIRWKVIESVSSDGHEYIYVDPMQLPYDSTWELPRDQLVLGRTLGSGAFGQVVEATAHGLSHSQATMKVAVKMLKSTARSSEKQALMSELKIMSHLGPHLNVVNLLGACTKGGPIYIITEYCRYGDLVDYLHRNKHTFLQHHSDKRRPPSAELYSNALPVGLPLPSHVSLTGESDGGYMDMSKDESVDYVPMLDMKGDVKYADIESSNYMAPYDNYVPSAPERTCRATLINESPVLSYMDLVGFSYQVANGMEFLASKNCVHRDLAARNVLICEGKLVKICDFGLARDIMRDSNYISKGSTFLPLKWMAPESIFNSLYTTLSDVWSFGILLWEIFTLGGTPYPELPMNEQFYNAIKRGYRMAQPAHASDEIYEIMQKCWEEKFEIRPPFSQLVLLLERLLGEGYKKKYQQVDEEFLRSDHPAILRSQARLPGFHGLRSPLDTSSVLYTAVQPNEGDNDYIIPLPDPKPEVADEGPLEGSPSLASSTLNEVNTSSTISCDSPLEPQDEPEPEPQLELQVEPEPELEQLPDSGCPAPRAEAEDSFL

One may read the inhibition as the percentage by which the read-out fell short of the control. The IC50 is the point on the concentration scale where inhibition reaches its midpoint. With `CCCCCCCCCCCC(=O)NNC(=O)C1Sc2ccccc2N(Cc2ccccc2)C1=O` (stereo not drawn), the inhibition result in [1] and in [14] was “Active” throughout. Moreover, the inhibition in assay [2] was 0%; in [3], 36%; in assay [5], 29.3%; in assay [6], 0%; in [9], 0%; in [10] it was 13%. For the same compound, the inhibition in assay [11] came to 12.2%; in assay [12] it was 0%; in assay [13] it was 12.4%. The result in the assay on 3T3-L1 [4] and in the assay on HepG2 [7] was Active. The IC50 in assay [8] is 10 µM.

Take `CCCCCCCCCCCCCC(=O)NCC(=O)N[C@@H](CCCCN)C(=O)N[C@@H](CCC(=O)O)C(=O)N[C@@H](C)C(=O)N1CCC[C@H]1C(=O)N1CCC[C@H]1C(=O)N[C@@H](C)C(=O)N1CCC[C@H]1C(=O)N1CCC[C@H]1C(=O)N[C@@H](CCC(N)=O)C(=O)N[C@@H](COP(=O)(O)O)C(=O)N1CCC[C@H]1C(N)=O` (Myristoyl-GKEAPPAPPQ[pS]P-NH2): the IC50 in assay [8] is 40 µM.

`Cn1cc(C2=C(c3ccc(Cl)cc3Cl)C(=O)NC2=O)c2ccccc21`: the result in the assay on HepG2 [15] and in the assay on 3T3-L1 [17] was Active. Moreover, the inhibition result in assay [16] was “Active”.

Regarding `Cn1sc(=O)n(Cc2ccccc2)c1=O`, the outcome in the assay on HepG2 [18] and with 3T3-L1 [19] was Active. In assay [20], the inhibition entry was “Active”.

Consider `CCN(CC)CCNC(=O)c1c(C)[nH]c(/C=C2\C(=O)Nc3ccc(F)cc32)c1C`, for which the inhibition worked out at 70.6% in assay [2] and 71.4% in assay [6].

Regarding `CN(C)C/C=C/C(=O)Nc1cc2c(Nc3ccc(F)c(Cl)c3)ncnc2cc1O[C@H]1CCOC1`, the inhibition in assay [9] was found to be 88.1%.

In the case of `CCCCCCCCCCCC(=O)NNC(=O)C1Sc2ccccc2N(CC)C1=O` (stereo not drawn), the result in the assay on 3T3-L1 [4] and with HepG2 [7] was Active. Further, the IC50 in assay [8] amounted to 8 µM. The inhibition result in [14] is “Active”.
